Test results: patent US12358908B2, “Crystals, preparation method and application of a muscarinic receptor antagonist” (BEIJING SHOWBY PHARMACEUTICAL CO., LTD., priority 2020, dated 2025)

What was measured:
M3 receptor = M3 receptor (Homo sapiens, UniProt P20309); settings: selective effect on M receptor subtypes; cited from earlier work
M2 receptor = molecular target: T1, M2 receptor (Homo sapiens, UniProt P08172); settings: selective effect on M receptor subtypes; cited from earlier work
T1 sequence (P08172 1-466): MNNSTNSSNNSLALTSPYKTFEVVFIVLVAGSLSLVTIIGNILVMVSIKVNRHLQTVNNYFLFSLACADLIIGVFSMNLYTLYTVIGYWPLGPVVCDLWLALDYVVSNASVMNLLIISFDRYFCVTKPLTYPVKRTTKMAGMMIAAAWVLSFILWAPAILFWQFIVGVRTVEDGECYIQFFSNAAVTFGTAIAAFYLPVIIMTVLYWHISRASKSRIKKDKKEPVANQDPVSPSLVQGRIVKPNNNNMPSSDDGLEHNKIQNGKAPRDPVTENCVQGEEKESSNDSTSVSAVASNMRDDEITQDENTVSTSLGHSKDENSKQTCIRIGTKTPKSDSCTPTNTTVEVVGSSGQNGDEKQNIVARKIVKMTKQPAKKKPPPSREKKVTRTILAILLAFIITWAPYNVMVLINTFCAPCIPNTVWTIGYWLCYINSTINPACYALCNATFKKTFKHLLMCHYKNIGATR

[1] = Stability test in 40° C./75% RH chamber with XRPD detection; assay type: physicochemical; settings: bottle sealed with filter paper, after 3 days
Protocol: The solid samples obtained were analyzed with an X-ray powder diffraction analyzer (Bruker D8 advance) equipped with a LynxEye detector. The samples was scanned with a 20 scanning angle from 3° to 40°, a scanning step of 0.02°, a tube voltage of 40 KV and a tube current of 40 mA. The sample pan used for sample measurement is a zero background sample pan.
The bottle was sealed with filter paper, and put into a 40° C./75% RH chamber for stability test. After 3 days, the sample was taken out for XRPD detection.
About 10 mg of Crystal B was weighed in an 8 mL sample bottle. The bottle was sealed with filter paper, and put into a 40° C./75% RH chamber for stability test. After 3 days, the sample was taken out for XRPD detection.

[2] = Dynamic vapor sorption (DVS); assay type: physicochemical; settings: at RH 80% humidity
Protocol: The dynamic vapor sorption and desorption analysis was performed on the IGA SORP (Hidenlsochema) instrument. The samples were tested in gradient mode. The test was performed in a humidity range of 0% to 90%, with an incremental humidity between each gradient of 10%. For each gradient, the shortest test time was 30 min, and the longest test time was 120 min. There is a time interval of 3 min for collecting data in the system.

Sequence of M3 receptor (P20309 whole entry): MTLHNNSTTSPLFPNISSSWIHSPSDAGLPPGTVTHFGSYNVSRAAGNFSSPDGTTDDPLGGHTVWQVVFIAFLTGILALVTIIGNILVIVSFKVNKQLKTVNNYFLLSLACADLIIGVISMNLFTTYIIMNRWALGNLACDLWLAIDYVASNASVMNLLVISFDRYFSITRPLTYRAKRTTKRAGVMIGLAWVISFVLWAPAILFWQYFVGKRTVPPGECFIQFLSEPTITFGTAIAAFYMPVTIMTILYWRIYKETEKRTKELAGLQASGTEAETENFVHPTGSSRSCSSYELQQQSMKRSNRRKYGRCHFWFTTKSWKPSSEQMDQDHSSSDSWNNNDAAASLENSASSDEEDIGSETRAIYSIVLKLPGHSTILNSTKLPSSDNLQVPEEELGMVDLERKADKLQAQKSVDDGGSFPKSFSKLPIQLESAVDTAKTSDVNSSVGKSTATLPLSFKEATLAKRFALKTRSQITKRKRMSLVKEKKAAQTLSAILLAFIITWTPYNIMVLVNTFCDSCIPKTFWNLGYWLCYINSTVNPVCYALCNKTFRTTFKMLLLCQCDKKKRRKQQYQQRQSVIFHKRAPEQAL

SMILES	effect on M3 receptor (M3 receptor)	effect on M2 receptor (M2 receptor)	crystal form change by XRPD detection after stability test [1]	hygroscopic weight increment [2] [%]
O[C@@](CO[C@H]1C[N+]2(CCCOc3ccccc3)CCC1CC2)(c1ccccc1)C1CCCC1.[Br-] [Compound I, (2R,3R)-3-[(2-cyclopentyl-2-hydroxy-2-phenyl)ethoxy]-1-(3-phenoxypropyl)-1-azabicyclo[2,2,2]octylonium bromide]	strong effect	weak effect	–	–
O[C@@](CO[C@H]1C[N+]2(CCCOc3ccccc3)CCC1CC2)(c1ccccc1)C1CCCC1.[Br-] [Crystal B]	–	–	did not change	2.58
